# Measured values: patent US10172911B2, “Methods of modulating erythropoiesis with arginine vasopressin receptor 1B molecules” (The United States of America, as represented by the …, priority 2013, dated 2019)
# Entries after “also recorded” stand apart in the source; their conditions may differ.
# Experiments:
# [1] = tested on: human CD34+ hematopoietic progenitors; assay: Intracellular Ca2+ measurement in Fura-2 loaded human CD34+ hematopoietic progenitors; assay type: cell-based; settings: human CD34+ cells, agonist stimulation
# Experimental: Human BMSCs were loaded with Fura-2 and the cells were stimulated with AVP, or OXT. Intracellular Ca^2+ concentration was assayed as described before (Ely, J. A. et al. J Biol Chem 266, 18635-18641 (1991). To study their response to AVP and specific AVP receptor agonists and antagonists human CD34+ hematopoietic progenitors were Fura-2 loaded and Cytoplasmic Ca2+ measurements were performed in cells kept in suspension using a fluorescence spectrophotometer (Deltascan, Photon Technology International). Ratiometric measurements were recorded at 340/380 nm excitation and 500 nm emission and the ratios were plotted against time. Ionomycin (10 μM) was added at the end of each run to determine the maximum fluorescence ratio.
# human CD34^+ cells = assay: BrdU cell proliferation assay, human CD34+ cells; assay type: cell-based
# Experimental: Sorted mouse bone marrow LSK cells (10000 cells/well) were plated in a 96 well plate in Stemspan serum free expansion medium ([…] Technologies, Vancouver, Canada) with Pen/Strep, and the following hematopoietic factors: 100 ng/ml TPO, 50 ng/ml FLT3L, 50 ng/ml IL-3 and SCF 100 ng/ml (Peprotech, Rocky Hill, N.J.). Cells were treated with […] (Sigma-Aldrich, St. Louis, Mo.). When using human CD34^+ cells (5000 cells/well), human SCF, TPO, FLT3L and G-CSF (Peprotech, each at 50-100 ng/ml) were added to the Stemspan medium. Cells were treated with 10^−8M-10^−14M AVP. After 24 hours, BrdU at a 1:1000 concentration was added to the cultures and incorporation of BrdU was measured using the Cell Proliferation ELISA BrdU kit (Roche, Mannheim, Germany) after another 24 hours of incubation.
# β-catenin = β-catenin immunostaining of AVP-stimulated human CD34+ cells; assay type: cell-based; settings: 10^−10 M, 24 hours
# Text: FIGS. 3A-3D show studies of signaling pathways. FIG. 3A provides results from CFU assays showing E-CFU and GM-CFU numbers/1000 plated cells. […] Error bars represent means±SD * p<0.05, ** p<0.01, unpaired t-test. […] The cells were then fixed with 4% paraformaldehyde and washed before immunostaining. Following permeabilization with Triton-X 100 a primary antibody to β-catenin was applied followed by a fluorescent secondary antibody. The β-catenin translocated to the nucleus at the 10^−10 AVP concentration confirming the activation of the Wnt pathway. Scale: 10 μm. […] Using Q-PCR to detect changes in genes that reflect Wnt pathway activation, increases in CCND1, MYC and LEF1 in response to AVP stimulation were observed.
# FIGS. 8A-8C show AVP stimulation results in the nuclear translocation of β-catenin affecting the Wnt pathway. […] The cells were then fixed with 4% paraformaldehyde and washed before immunostaining. Following permeabilization with Triton-X 100, a primary antibody to β-catenin was applied followed by a fluorescent secondary antibody. The β-catenin translocated to the nucleus at the 10^−10 M AVP concentration confirming the activation of the Wnt pathway. Scale: 10 μm. FIG. 8B CFU assays showing E-CFU and GM-CFU numbers/1000 plated cells. […] Error bars represent means±SD * p<0.05, ** p<0.01, unpaired t-test.
# [2] = tested on: CD34^+ human hematopoietic progenitor cells; assay: cAMP measurement in CD34+ human hematopoietic progenitor cells; assay type: cell-based; settings: AVP 10^−10 M vs non-stimulated cells
# Text: For cAMP measurements in CD34^+ human hematopoietic progenitor cells derived from two donors. The cAMP femto 2 kit (Cat#62AM5PEB, Cisbio) was used according to manufacturers instructions. The measurements were done on a Wallac Victor2 1420 multilabel counter (Perkin Elmer).
# C57BL6 male mice = assay: Hemorrhage anemia model, Alzet pump delivery; assay type: in vivo, mouse
# Experimental: Mice were anesthetized with isoflurane. Twenty five percent of their calculated circulating blood volume (calculated based on Animal Research Advisory Committee Guidelines for survival bleeding of mice and rats, OACU, NIH) was drained from the retro-orbital plexus.
# The reticulocyte ratio of peripheral blood was determined using the Retic-Count flow kit (BD Biosciences) according to the manufacturer's instructions. Hematocrit values were measured with an automated analyzer and microhematocrit tubes. The reticulocyte index was calculated as follows: reticulocyte ratio %/total gated cells×hematocrit/45.
# (§1) To infuse vasopressin into the mice, AVP filled ALZET pumps were implanted subcutaneously on the dorsal aspect of the neck (5 ug/day, Alzet 1007D—7 days, 2002-14 days). Vasopressin was also given immediately and 6 hours later as a bolus injection (100 μg/kg). Alzet pumps were inserted subcutaneously. The dimensions and pump specification are: ALZET, (DURECT Corporation, Cupertino, Calif., USA) mini-osmotic pump models 1007D or 2002. The pumps deliver 0.5 μl/h of the desired substance for a for 2-week period. In some cases, erythropoietin antibody (100 μg/mice) was given before anesthesia with the corresponding control antibody. […] Following the initial hemorrhage blood samples were taken at 2, 4 and in some cases 6 days later to determine hematocrit and corrected reticulocyte values.
# mice [3] = assay: Sublethal irradiation anemia model; assay type: in vivo, mouse
# Experimental: Mice were irradiated with 4.5 Grays, and 24 hours later mice were implanted with ALZET micro-osmotic pumps as described above to deliver AVP or vehicle. Mice were treated with Trimethoprim and Sulfamethoxazole (Bactrim, Septra) for 7 days before irradiation and continued the treatment for 4 weeks after irradiation. Using a pediatric formulation, the stock concentration contains 40 mg/5 ml Trimethoprim and 200 mg/5 ml Sulfa, so that the treated drinking water will deliver 0.13 mg/ml trimethoprim and 0.67 mg/ml sulfa to the mice.
# mice [4] = assay: EPO neutralization study in hemorrhage; assay type: in vivo, mouse
# Experimental: as §1
# In some cases Erythropoietin antibody (100 μg/mice) was given before anesthesia with the corresponding control antibody.
# Human BMSCs = assay: BMSC signalling (ERK phosphorylation, cAMP, intracellular Ca2+); assay type: cell-based; settings: BMSC cultures
# Experimental: For cAMP quantitation, 8×10^5 per well human BMSCs were plated in 6 well plates and left to attach overnight. Next day, the medium was changed and the cells were stimulated with AVP or deamino-Cys^1, D-Arg^8 AVP (DDAVP, a V2 receptor agonist) at 10^−6 M for 4 minutes. Cells were washed with PBS and lysed with R&D cell lysis buffer. Cyclic AMP was measured with the R&D cAMP Parameter assay kit (R&D Systems, Minneapolis, Minn.) according to manufacturer's instructions. Total protein concentrations of the cell lysates were measured using the Micro BCA Protein Assay kit (Pierce, Rockford, Ill.) and cAMP amount was normalized to 100 μg of total protein.
# splenectomized mice = assay: Hemorrhage in splenectomized mice; assay type: in vivo, mouse; settings: splenectomized mice vs controls
# Experimental: Three to four month old mice were splenectomized and recovered for a month. AVP was administered at the time of bleeding and blood was sampled 2 and 4 days later for hematocrit and reticulocyte measurements.
# WT mice = assay: AVP infusion in unmanipulated WT mice; assay type: in vivo, mouse; settings: infused over a 3 week period
smiles,measurement,setting,value
"NC(=O)CC[C@@H]1NC(=O)[C@H](Cc2ccccc2)NC(=O)[C@H](Cc2ccc(O)cc2)NC(=O)[C@@H](N)CSSC[C@@H](C(=O)N2CCC[C@H]2C(=O)N[C@@H](CCCN=C(N)N)C(=O)NCC(N)=O)NC(=O)[C@H](CC(N)=O)NC1=O [AVP, [Arg8]-Vasopressin]",intracellular calcium levels,[1],increases in their intracellular calcium levels; also recorded: increase in intracellular calcium; also recorded: increased intra-cellular Ca^2+ concentrations
same,proliferation (BrdU) of human CD34+ cells / HSPCs,human CD34^+ cells,induced proliferation; also recorded: significantly increased the proliferation
same,nuclear translocation of β-catenin,β-catenin,drives nuclear translocation of β-catenin; also recorded: had this effect
same,cAMP in human CD34+ progenitors,[2],moderate increase in cAMP
same,corrected reticulocyte numbers,C57BL6 male mice; 2 days post hemorrhage,significant increase; also recorded: had increased
same,hematocrit,C57BL6 male mice; 2 days post hemorrhage,significant increase
same,hematocrit,C57BL6 male mice; 4 days post hemorrhage,significantly higher hematocrit
same,number of highly fluorescent (high intensity) reticulocytes,"C57BL6 male mice; anemia models, FACS with thiazol orange",significantly increased
same,hematocrits,C57BL6 male mice; between days 2 and 4 after removal of 25% of blood volume,also increased
same,recovery times,"C57BL6 male mice; hemorrhage, FIG. 9D",significantly improved recovery times
same,"outcome measures (hematocrit, corrected reticulocytes)","mice [3]; sublethal irradiation, day 2 and day 4",significantly improved outcome measures on day 2 and to some extent on day 4
same,hematocrit and reticulocyte numbers,mice [3]; sublethally irradiated mice,rapid elevations in hematocrit and reticulocyte numbers
same,CR numbers,"mice [4]; EPO neutralized group, day 6",began to increase CR numbers
same,CR values over PBS,"mice [4]; EPO neutralized, day 4",eliminated this difference
same,hematocrit values,"mice [4]; after EPO neutralization, hemorrhage",significantly increased hematocrit values
same,CR values over PBS,"mice [4]; control mice, day 4 and 6",increased the CR values over PBS
same,"corrected reticulocyte (CR) values, EPO neutralized or control groups, AVP or PBS",mice [4]; day 2,no significant difference
same,ERK phosphorylation,Human BMSCs,induced ERK phosphorylation
same,cyclic AMP,Human BMSCs; 10^−6 M for 4 minutes,increase in cyclic AMP
same,AVP-induced hematocrit response,splenectomized mice,no different from controls
same,RBC numbers,WT mice,gradually increased RBC numbers
